Measured values taken from US12122728B2, “Use of substituted 2-thiazolines as nitrification inhibitors” (BASF SE, priority 2018, dated 2024).

System: nitrification
Assay: Inhibition of nitrification in soil incubation test (ammonium and nitrate content after 14 days)
Conditions: 100 g soil, 10 mg ammoniumsulfate-N, 20° C., 0 and 14 days; for NI* @ 0.3%: compound at 0.3% of nitrogen N; for NI* @ 1%: compound at 1% of nitrogen N; for NI* @ 3%: compound at 3% (of nitrogen N)
Description: The compounds of the invention have been tested as follows in terms of the inhibition of nitrification:
100 g soil is filled into 500 ml plastic bottles (e.g. soil sampled from the field) and is moistened to 50% water holding capacity. The soil is incubated at 20° C. for two weeks to activate the microbial biomass. 1 ml test solution, containing the compound in the appropriate concentration (usually 0.3 or 1% of nitrogen N), or DMSO and 10 mg nitrogen in the form of ammoniumsulfate-N is added to the soil and everything mixed well. Bottles are capped but loosely to allow air exchange. The bottles are then incubated at 20° C. for 0 and 14 days.
For analysis, 300 ml of a 1% K2SO4-solution is added to the bottle containing the soil and shaken for 2 hours in a horizontal shaker at 150 rpm. Then the whole solution is filtered through a filter (Macherey-Nagel Filter MN 807%). Ammonium and nitrate content is then analyzed in the filtrate in an autoanalyzer at 550 nm (Merck, AA11).
The inhibition (NI® a specified concentration) is calculated as follows: […]

| Structure (SMILES) | NI* @ 0.3% | NI* @ 1% | NI* @ 3% |
| --- | --- | --- | --- |
| CSC1=NCCS1 [Cmpd 1, 2-(Methylthio)-2-thiazoline] | 60.1 | 90.2 | 88 |
| CC#CSC1=NCCS1 [Cmpd 2, 2-(Propynylthio)-2-thiazoline] | – | – | 76.3 |
| SC1=NCCS1 [Cmpd 3, 2-Mercapto-2-thiazoline] | – | 47 | 83.5 |
| CC1(C)CSC(S)=N1 [Cmpd 4, 4,4-Dimethyl-2-mercaptothiazoline] | – | – | 57.5 |
| O=C(Nc1ccccc1)SC1=NCCS1 [Cmpd 5, 2-(Phenylaminocarbonylthio)-2-thiazoline] | – | – | 55 |
| Br.O=C(CSC1=NCCS1)c1ccccc1 [Cmpd 6, 2-(2-Thiazolin-2-ylthio)-acetophenone, hydrobromide] | 21 | 31 | 53.9 |
| Cc1cc(Cl)ccc1SC1=NCCS1 [Cmpd. 7, 2-(4-Chloro-2-methylphenylthio)-2-thiazoline] | – | 25.7 | 48.8 |
| CCNC(=O)SC1=NCCS1 [Cmpd. 8, 2-(Ethylaminocarbonylthio)-2-thiazoline] | – | – | 43.1 |
| CCSC1=NCCS1 [Cmpd. 9, 2-(Ethylthio)-2-thiazoline] | – | 22 | – |
| COC(=O)CSC1=NCCS1 [Cmpd. 10, (2-Thiazolin-2-ylthio)-acetic acid, methyl ester] | – | 21.5 | – |
| CN(C)C(=S)SC1NCCS1 (stereo not drawn) [Cmpd. 11, 4,5-dihydro-3H-thiazol-2-yl N,N-dimethylcarbamodithioate] | – | 31.2 | 58.4 |
